Laboratory results as given in patent publication US11298314B2, “Injectable composition for localized fat reduction without pain, edema, and side effects, and method for preparing same” (AMI PHARM CO., LTD., priority 2017, dated 2022).

Columns and labels:
sole of the rat paws = experiment: Measurement of skin lesion (erythema) on rat paw; type: in vivo, Sprague Dawley rats;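 note: grades − to ++++ mean no to extremely severe erythema versus before injection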
Experimental: To evaluate the degree of edema, each test compositions described above were injected into the paw of the rats. Specifically, male Sprague Dawley rats (6 weeks old) were purchased and used after one week of adaptation. The rats (body weight: 170˜200 g) were randomly selected and the thickness of the rat paw were measured with a caliper before the administration of the test compositions. In order to observe the edema, 0.1 ml of PBS and the various test compositions were administered to the paws of the rats. Measurements of the […] were performed by a caliper immediately before the injection, immediately after the injection, and 1 or 2 hours after the injection. In addition, when the thickness was measured, the skin lesion of the injection site was observed by photographing the sole of the paw (using a 4×4 cm scale).
The grades of skin lesion were evaluated as 0 to 4 grades.

[1] = Formulation stability of PPC injectable preparations: property, transparency, particle size, pH; conditions: based on PPC 5.0%
[2] = test system: tissues of the injected area (rat paw); experiment: H&E staining histological test (inflammation) of injected rat paw; type: in vivo, Sprague Dawley rats; conditions: injected rat paw
Experimental: The tissues of the injected area were dissected, fixed with 10% formalin, and then the specimen was prepared and images were captured using an optical microscope. The degree of inflammation was evaluated as follows.

[3] = bile acid single composition 1.0% (w/v)
[4] = bile acid single composition 2.5% (w/v)
[5] = bile acid single composition 5.0% (w/v)

SMILES	grade of skin lesion (erythema), 2 hours after administration (sole of the rat paws; [3])	grade of skin lesion (erythema), 2 hours after administration (sole of the rat paws; [4])	grade of skin lesion (erythema), 2 hours after administration (sole of the rat paws; [5])	grade of skin lesion (erythema), 2 hours after administration (sole of the rat paws; bile acid single composition 7.5% (w/v))	bile acid concentration at which stable injectable preparations can be made [1] [%]	Inflammation (H&E), BA % (w/v) 1.0 [2, 3]	Inflammation (H&E), BA % (w/v) 2.5 [2, 4]	Inflammation (H&E), BA % (w/v) 5.0 [2, 5]
C[C@H](CCC(=O)NCCS(=O)(=O)O)[C@H]1CC[C@H]2[C@@H]3[C@H](O)C[C@@H]4C[C@H](O)CC[C@]4(C)[C@H]3C[C@H](O)[C@]12C [TCA, 2-[[(4R)-4-[(3R,5S,7R,8R,9S,10S,12S,13R,14S,17R)-3,7,12-trihydroxy-10,13-dimethyl-2,3,4,5,6,7,8,9,11,12,14,15,16,17-tetradecahydro-1H-cyclopenta[a]phenanthren-17-yl]pentanoyl]amino]ethanesulfonic acid]	−	+	+	++	≥ 2.5	+	++	++
C[C@H](CCC(=O)O)[C@H]1CC[C@H]2[C@@H]3[C@H](O)C[C@@H]4C[C@H](O)CC[C@]4(C)[C@H]3C[C@H](O)[C@]12C [CA, (4R)-4-[(3R,5S,7R,8R,9S,10S,12S,13R,14S,17R)-3,7,12-trihydroxy-10,13-dimethyl-2,3,4,5,6,7,8,9,11,12,14,15,16,17-tetradecahydro-1H-cyclopenta[a]phenanthren-17-yl]pentanoic acid]					≥ 2.2			
